This note sets out measurements from patent US5385884A, “Lipopeptide derivatives” (Merck & Co. Inc., priority 1991, dated 1995).

In one experiment the test system is Pneumocystis carinii. Description: Pneumocystis carinii pneumonia in immunosuppressed rats. The class given is in vivo, Sprague-Dawley rats. The following applies: intraperitoneally (I.P.) twice daily for four days. As to the method: In a representative study, the effectiveness of Compound A-la was determined. Sprague-Dawley rats (weighing approximately 250 grams) were immunosuppressed with dexasone in the drinking water (2.0 mg/L) and maintained on a low protein diet for five weeks to induce the development of pneumocystis pneumonia from a latent infection. […] Six rats (weighing approximately 150 grams) were injected twice daily for four days intravenously (I.V.) via the tail vein with Compound A-la in 0.25 ml of vehicle (distilled water). A vehicle control was also carried out. All animals continued to receive dexasone in the drinking water and low protein diet during the treatment period. At the completion of the treatment, all animals were sacrificed, the lungs were removed and processed, and the extent of disease determined by microscopic analysis of stained slides.
In a similar experiment, except that the rats were injected intraperitoneally (I.P.) twice daily for four days, the animals were sacrificed, the lungs removed and processed, and the extent of disease determined by microscopic analysis of stained slides.

A further experiment deals with C. albicans. Put plainly: Minimum fungicidal concentration, microbroth dilution assay in YNBD. The class given is cell-based. As to the method:
The minimum inhibitory concentrations (MICs) were recorded as the lowest concentrations of drug showing no visible growth.
After recording the MIC, the plates were shaken to resuspend the cells. […] The MFC is defined as the lowest concentration of drug showing no growth or less than 4 colonies per spot.
For orientation: Broth dilution looks for growth in wells or tubes with falling amounts of substance.

Turning to “1-[4-hydroxy-N2-(10,12-dimethyl-1-oxotetradecyl)-ornithine]-4-[3-hydroxy-4' -O-phosphoryl-homotyrosine]-5-[3-hydroxyglutamine]-6-[3-hydroxyproline]echi nocandin B disodium salt [Compound A-2a]”, the “ED90 for eliminating P. carinii cysts” value in the experiment on Pneumocystis carinii is “approximately 0.6 mg/kg”. Also, the “Minimum Fungicidal Concentration” value in the experiment with C. albicans (C. albicans MY 1028) and in the experiment with C. albicans (C. albicans MY 1208) was 2 µg/mL throughout.
